From publication PMC12614342, “Azetidine amino acid biosynthesis by non-haem iron-dependent enzymes” (Nature Chemistry, 2025)

Assays:
PolF [1] = molecular target: T1, PolF (Streptomyces asoensis, UniProt C1IC29); details: Fe(II)2 form; L-Ile bidentate on Fe1; TEV-cleaved tagless protein, crystals grown with 15 mM L-Ile, pH 8.5
PolE = molecular target: T2, PolE (Streptomyces asoensis, UniProt C1IC30); details: Fe(II), BH4, O2, ascorbate; 50 mM HEPES pH 7.6, 25 °C
T2 construct: gene Saso_24180

PolF [2] = molecular target: T1, PolF; details: Fe(II), O2, ascorbate; 50 mM HEPES pH 7.6, 25 °C (stopped-flow 5 °C, no ascorbate)

T2 sequence (C1IC30 entry or part of it): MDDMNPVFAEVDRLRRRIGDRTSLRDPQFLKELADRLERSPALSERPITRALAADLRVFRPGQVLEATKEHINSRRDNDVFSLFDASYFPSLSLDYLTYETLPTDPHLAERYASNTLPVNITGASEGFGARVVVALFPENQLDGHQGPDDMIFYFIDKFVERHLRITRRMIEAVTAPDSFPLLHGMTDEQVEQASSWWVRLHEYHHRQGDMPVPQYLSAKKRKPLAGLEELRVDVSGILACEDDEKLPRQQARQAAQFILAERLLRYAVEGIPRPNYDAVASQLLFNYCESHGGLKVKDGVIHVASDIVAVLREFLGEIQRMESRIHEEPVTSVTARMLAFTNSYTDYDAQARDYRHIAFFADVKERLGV

SMILES	X-ray crystal structure of the complex (PolF [1])	LC-MS of dansylated desaturation product (PolE)	LC-MS of dansylated products; stopped-flow at 614 nm (PolF [2])
CC[C@H](C)[C@H](N)C(=O)O [L-Ile]	The L-Ile substrate directly coordinates Fe1 in a bidentate fashion	PolE catalysed the desaturation of L-Ile in the presence of BH4	–
CC(C)[C@H](N)C(=O)O [L-Val]	–	–	the reaction with L-Val yielded a product with a −4-Da modification
